Laboratory results as given in ChEMBL document CHEMBL2069270, “Exploration of ring size in a series of cyclic vicinal diamines with σ₁ receptor affinity” (Bioorg Med Chem Lett, 2012).

Assays:
[1] = Selectivity ratio of Ki for rat sigma2 receptor to Ki for guinea pig sigma1 receptor
[2] = Displacement of [3H]DTG from sigma2 receptor in rat liver homogenate in presence of (+)-pentazocine; format: tissue-based
[3] = biological target: Sigma non-opioid intracellular receptor 1 (Cavia porcellus, UniProt Q60492); experiment: Displacement of [3H](+)-pentazocine from sigma1 receptor in guinea pig brain homogenate; format: tissue-based
Sigma non-opioid intracellular receptor 1 (Cavia porcellus, UniProt Q60492), sequence (Q60492 whole entry): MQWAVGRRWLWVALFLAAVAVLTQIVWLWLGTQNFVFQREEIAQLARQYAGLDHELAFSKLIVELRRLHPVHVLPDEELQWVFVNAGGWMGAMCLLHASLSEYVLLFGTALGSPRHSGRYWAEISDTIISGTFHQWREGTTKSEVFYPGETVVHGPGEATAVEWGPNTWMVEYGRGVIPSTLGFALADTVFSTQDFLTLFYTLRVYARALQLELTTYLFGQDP

[4] = Binding affinity to sigma2 receptor; set-up: species or system Homo sapiens
[5] = Binding affinity to sigma2 receptor in guinea pig brain homogenate; format: tissue-based, Cavia porcellus
[6] = biological target: Sigma non-opioid intracellular receptor 1 (Rattus norvegicus, UniProt Q9R0C9); experiment: biochemical
Sigma non-opioid intracellular receptor 1 (Rattus norvegicus, UniProt Q9R0C9), sequence (Q9R0C9 whole entry): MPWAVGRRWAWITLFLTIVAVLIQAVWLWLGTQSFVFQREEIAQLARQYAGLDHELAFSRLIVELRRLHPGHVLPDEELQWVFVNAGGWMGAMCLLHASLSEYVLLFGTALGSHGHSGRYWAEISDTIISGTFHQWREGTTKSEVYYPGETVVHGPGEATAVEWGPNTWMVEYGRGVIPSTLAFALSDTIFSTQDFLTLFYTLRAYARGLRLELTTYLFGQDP
Description: Displacement of [3H](+)-pentazocine from sigma1 receptor in rat brain homogenate after 120 mins

[7] = Binding affinity to sigma1 receptor

Question: With `CCOc1ccc(CN2CCN(Cc3cc4ccccc4o3)C2)cc1` as the molecule, how does the Ratio Ki [1] read?
Answer: Its Ratio Ki is 123.

Question: And the Ki [2]?
Answer: The Ki was 2380 nM.

Question: And the Ki [3]?
Answer: Its Ki is 19.3 nM.

Question: For `c1ccc(CN2CCN(Cc3ccccc3)CC2)cc1`, which Ki [4] is on record?
Answer: Its Ki is 1270 nM.

Question: With `FCCOc1ccc(CN2CCN(Cc3cc4ccccc4o3)CC2)cc1` as the molecule, how does the Ratio Ki [1] read?
Answer: The Ratio Ki was 16100.

Question: And the Ki [2]?
Answer: Its Ki is 807 nM.

Question: What about the Ki [3] of the same molecule?
Answer: The Ki was 0.05 nM.

Question: What does the source list for `CCCOc1ccc(CN2CCN(Cc3cc4ccccc4o3)C2)cc1`?
Answer: Ratio Ki [1]: 121; Ki [2]: 6470 nM; Ki [3]: 53.5 nM

Question: Which Ratio Ki [1] does the source give for `CCCOc1ccc(CN2CCN(Cc3cc4ccccc4o3)CC2)cc1` here?
Answer: The Ratio Ki was 143.

Question: And the Ki [2]?
Answer: The Ki was 1470 nM.

Question: What about the Ki [3] of the same molecule?
Answer: Its Ki is 10.3 nM.

Question: With `COc1ccc(CN2CCN(Cc3cc4ccccc4o3)C2)cc1` as the molecule, how does the Ratio Ki [1] read?
Answer: The Ratio Ki was 58.

Question: What about the Ki [2] of the same molecule?
Answer: The Ki was 2500 nM.

Question: What about the Ki [3] of the same molecule?
Answer: Its Ki is 43 nM.

Question: What does the source list for `FCCOc1ccc(CN2CCCN(Cc3cc4ccccc4o3)CC2)cc1`?
Answer: Ratio Ki [1]: 881; Ki [2]: 88.1 nM; Ki [3]: 0.1 nM

Question: With `CCOc1ccc(CN2CCCN(Cc3cc4ccccc4o3)CC2)cc1` as the molecule, how does the Ratio Ki [1] read?
Answer: Its Ratio Ki is 1500.

Question: What about the Ki [2] of the same molecule?
Answer: Its Ki is 292 nM.

Question: And the Ki [3]?
Answer: Its Ki is 0.194 nM.

Question: What does the source list for `CCOc1ccc(CN2CCN(Cc3cc4ccccc4o3)CC2)cc1`?
Answer: Ratio Ki [1]: 6190; Ki [2]: 1120 nM; Ki [3]: 0.18 nM

Question: Which Ratio Ki [1] does the source give for `FCCOc1ccc(CN2CCN(Cc3cc4ccccc4o3)C2)cc1` here?
Answer: Its Ratio Ki is 237.

Question: What about the Ki [2] of the same molecule?
Answer: The Ki was 1530 nM.

Question: And the Ki [3]?
Answer: The Ki was 6.45 nM.

Question: With `FCCCOc1ccc(CN2CCN(Cc3cc4ccccc4o3)C2)cc1` as the molecule, how does the Ratio Ki [1] read?
Answer: The Ratio Ki was 175.

Question: And the Ki [2]?
Answer: The Ki was 3640 nM.

Question: And the Ki [3]?
Answer: Its Ki is 20.8 nM.

Question: For `COc1ccc(CN2CCCN(Cc3cc4ccccc4o3)CC2)cc1`, which Ratio Ki [1] is on record?
Answer: The Ratio Ki was 220.

Question: What about the Ki [2] of the same molecule?
Answer: Its Ki is 119 nM.

Question: What about the Ki [3] of the same molecule?
Answer: Its Ki is 0.54 nM.

Question: Which Ki [4] does the source give for `COc1cccc2c1CCCC2CCCN1CCN(Cc2ccccc2)CC1` (stereo unspecified) here?
Answer: The Ki was 1870 nM.

Question: Which Ki [5] does the source give for `COc1ccc(CCN2CCN(CCCc3ccccc3)CC2)cc1OC` [[11C]SA4503] here?
Answer: Its Ki is 63 nM.

Question: Which Ratio Ki [1] does the source give for `COc1ccc(CN2CCN(Cc3cc4ccccc4o3)CC2)cc1` here?
Answer: Its Ratio Ki is 929.

Question: And the Ki [2]?
Answer: The Ki was 167 nM.

Question: And the Ki [3]?
Answer: Its Ki is 0.18 nM.

Question: With `S=c1sc2ccccc2n1CCCCN1CCN(C2CCCCC2)CC1` as the molecule, how does the Ki [6] read?
Answer: The Ki was 1.3 nM.

Question: With `FCCCOc1ccc(CN2CCN(Cc3cc4ccccc4o3)CC2)cc1` as the molecule, how does the Ratio Ki [1] read?
Answer: Its Ratio Ki is 842.

Question: And the Ki [2]?
Answer: The Ki was 1360 nM.

Question: And the Ki [3]?
Answer: Its Ki is 1.61 nM.

Question: Which Ratio Ki [1] does the source give for `FCCCOc1ccc(CN2CCCN(Cc3cc4ccccc4o3)CC2)cc1` here?
Answer: Its Ratio Ki is 11500.

Question: And the Ki [2]?
Answer: The Ki was 1380 nM.

Question: And the Ki [3]?
Answer: The Ki was 0.12 nM.

Question: For `COc1cccc(CCN2CCN(CCCc3ccccc3)CC2)c1`, which Ki [7] is on record?
Answer: The Ki was 1.4 nM.

Question: What about the Ki [4] of the same molecule?
Answer: Its Ki is 10.2 nM.

Question: Which Ratio Ki [1] does the source give for `CCCOc1ccc(CN2CCCN(Cc3cc4ccccc4o3)CC2)cc1` here?
Answer: The Ratio Ki was 4600.

Question: And the Ki [2]?
Answer: The Ki was 700 nM.

Question: What about the Ki [3] of the same molecule?
Answer: Its Ki is 0.152 nM.
